Experimental data taken from patent publication US6653296B1, “Antiretroviral enantiomeric nucleotide analogs” (Institute of Organic Chemistry and Biochemistry of the …, priority 1992, dated 2003).
≈ marks a conversion by molar mass, not a printed value. Like-named read-outs stand apart in the source and are kept apart here. Marks after values point to notes of the source that are not given here.

Columns and labels:
HIV-2 = HIV-2 induced cytopathicity in MT-4 cells; assay type: cell-based, human immunodeficiency virus type 2; details: for EC50 HIV-2: concentration required to inhibit HIV-induced cytopathicity in MT-4 cells by 50%, 5 days
Procedure: (§1) The activity of the compounds against HIV-1 and HIV-2 induced cytopathicity was examined in human lymphocyte MT-4 cells. […] The infected cell cultures were then incubated at 37° C. for 5 days in a humidified CO2-controlled incubator. Then, the cytopathicity of the virus was examined by determination of MT-4 cell viability by trypan blue dye staining.

[1] = tested on: Moloney murine sarcoma virus (MSV); assay: MSV-induced transformation of C3H/3T3 cells; assay type: cell-based; details: concentration required to inhibit MSV-induced C3H/3T3 cell transformation by 50%; day 6
Procedure: The cells were seeded in 1-ml-wells of a 48-well microtiter plate and exposed to 80 PFU (plaque forming units) for 60-90 minutes. Then, the virus was removed and culture medium containing appropriate concentrations of the test compounds were added (1 ml per well). At day 6 post infection, MSV-induced transformation of the cell culture was examined microscopically.

HIV-1 = HIV-1 induced cytopathicity in MT-4 cells; assay type: cell-based, human immunodeficiency virus type 1; details: for EC50 HIV-1: concentration required to inhibit HIV-induced cytopathicity in MT-4 cells by 50%, 5 days
Procedure: as §1

[2] = tested on: Moloney murine sarcoma virus (MSV); assay: MSV-induced tumor formation and death in newborn NMRI mice, intraperitoneal administration; assay type: in vivo; details: for Mean day of animal death: observed 20 days
Procedure: Two gram newborn NMRI mice were injected intramuscularly in the left hind leg with 50 μl of 250-fold diluted stock preparation of Moloney murine sarcoma virus. […] Another group of mice (20 animals) was administered RPMI-1640 medium as placebo. All compounds were solubilized in RPMI-1640 medium. The mice were observed daily for 20 days and the day of tumor initiation and the day of animal death was recorded for each animal. Statistical analyses were performed by calculating the standard deviation.

C3H/3T3 cells = assay: Microscopic alteration of C3H/3T3 cell culture morphology; assay type: cell-based, murine; details: concentration that results in a microscopic alteration of the C3H/3T3 cell culture morphology
MT-4 cells = assay: MT-4 cell viability (trypan blue); assay type: cell-based, human
Procedure: The activity of the compounds against HIV-1 and HIV-2 induced cytopathicity was examined in human lymphocyte MT-4 cells. […]. The infected cell cultures were then incubated at 37° C. for 5 days in a humidified CO2-controlled incubator. Then, the cytopathicity of the virus was examined by determination of MT-4 cell viability by trypan blue dye staining. The results are summarized in Table 1 in comparison with the data on the prototype compounds.

retrovirus = assay: Anti-retrovirus activity in vitro, conclusions on Table 1 (HIV-1, HIV-2, MSV); assay type: cell-based
[3] = tested on: Moloney murine sarcoma virus (MSV); assay: MSV-induced tumor formation in NMRI mice, oral administration; assay type: in vivo
Procedure: Three-week-old NMRI mice (about 10 grams body weight) were injected intramuscularly in the left hind leg with 50 μl of 20-fold diluted stock preparation of Moloney murine sarcoma virus. Starting 2-4 hours before virus infection, six animals received an orally administered test compound twice a day at 100 mg/kg(total dose) daily for five subsequent days. The control (placebo) group consisted of 14 animals. The experiment was evaluated as described in Example 35.

herpes viruses = details: racemic mixtures, prior art; cited from earlier work
[4] = twice a day, 100 mg/kg total daily dose for five days

## CCC(C)Nc1nc(N)nc2c1ncn2C[C@@H](C)OCP(=O)(O)O (stereo partly drawn) [(R)-9-PMP-6-(2-butyl)-DAP, 9-(R)-(2-Phosphonomethoxypropyl)-2-amino-6-(2-butyl)aminopurine]
HIV-2
  EC50 HIV-2: 25 ± 15 µg/mL (≈ 69.8 µM)
[1]
  EC50 MSV: 3.5 µg/mL (≈ 9.77 µM)
HIV-1
  EC50 HIV-1: 30 ± 19 µg/mL (≈ 83.7 µM)

## C[C@H](Cn1cnc2c(NCc3ccccc3)nc(N)nc21)OCP(=O)(O)O [(R)-9-PMP-6-benzyl-DAP, 9-(R)-(2-Phosphonomethoxypropyl)-2-amino-6-benzylaminopurine]
HIV-2
  EC50 HIV-2: 8 µg/mL (≈ 20.4 µM)
[1]
  EC50 MSV: 0.3 µg/mL (≈ 0.765 µM)
HIV-1
  EC50 HIV-1: 10.3 µg/mL (≈ 26.3 µM)

## CCCCNc1nc(N)nc2c1ncn2C[C@@H](C)OCP(=O)(O)O [(R)-9-PMP-6-butyl-DAP, 9-(R)-(2-Phosphonomethoxypropyl)-2-amino-6-butylaminopurine]
HIV-2
  EC50 HIV-2: 9.8 µg/mL (≈ 27.3 µM)
[1]
  EC50 MSV: 3.27 µg/mL (≈ 9.13 µM)
HIV-1
  EC50 HIV-1: 13.1 µg/mL (≈ 36.6 µM)

## C[C@H](Cn1cnc2c(NC3CCCCC3)nc(N)nc21)OCP(=O)(O)O [(R)-9-PMP-6-cyclohexyl-DAP, 9-(R)-(2-Phosphonomethoxypropyl)-2-amino-6-cyclohexylaminopurine]
HIV-2
  EC50 HIV-2: 7 µg/mL (≈ 18.2 µM)
HIV-1
  EC50 HIV-1: 8.0 µg/mL (≈ 20.8 µM)

## C[C@H](Cn1cnc2c(N(C)C)nc(N)nc21)OCP(=O)(O)O [(R)-9-PMP-6-dimethyl-DAP, 9-(R)-(2-Phosphonomethoxypropyl)-2-amino-6-dimethylaminopurine]
HIV-2
  EC50 HIV-2: 4.2 µg/mL (≈ 12.7 µM)
[1]
  EC50 MSV: 3.25 µg/mL (≈ 9.84 µM)
HIV-1
  EC50 HIV-1: 2.3 µg/mL (≈ 6.96 µM)

## C[C@H](Cn1cnc2c(N3CCOCC3)nc(N)nc21)OCP(=O)(O)O [(R)-9-PMP-6-morpholino-DAP, 9-(R)-(2-Phosphonomethoxypropyl)-2-amino-6-morpholinopurine]
HIV-2
  EC50 HIV-2: >100 µg/mL
[1]
  EC50 MSV: 6.1 µg/mL (≈ 16.4 µM)
HIV-1
  EC50 HIV-1: >100 µg/mL

## C[C@H](Cn1cnc2c(N3CCCCC3)nc(N)nc21)OCP(=O)(O)O [(R)-9-PMP-6-piperidino-DAP, 9-(R)-(2-Phosphonomethoxypropyl)-2-amino-6-piperidinopurine]
HIV-2
  EC50 HIV-2: >100 µg/mL
[1]
  EC50 MSV: 12.6 µg/mL (≈ 34 µM)
HIV-1
  EC50 HIV-1: >100 µg/mL

## C[C@H](Cn1cnc2c(S)nc(N)nc21)OCP(=O)(O)O [(R)-9-PMP-6-thioG, 9-(R)-(2-Phosphonomethoxypropyl)-2-amino-6-thiopurine]
HIV-2
  EC50 HIV-2: >100 µg/mL
[1]
  EC50 MSV: 3.94 µg/mL (≈ 12.3 µM)
HIV-1
  EC50 HIV-1: >100 µg/mL

## C[C@H](Cn1cnc2c(S)ncnc21)OCP(=O)(O)O [(R)-9-PMP-6-thioPu, 9-(R)-(2-Phosphonomethoxypropyl)-6-mercaptopurine]
HIV-2
  EC50 HIV-2: >100 µg/mL
[1]
  EC50 MSV: 18 µg/mL (≈ 59.2 µM)
HIV-1
  EC50 HIV-1: >100 µg/mL

## C[C@H](Cn1nnc2c(N)ncnc21)OCP(=O)(O)O [(R)-9-PMP-8-azaA, 9-(R)-(2-Phosphonomethoxypropyl)-8-azaadenine]
HIV-2
  EC50 HIV-2: 1.75 µg/mL (≈ 6.07 µM)
[1]
  EC50 MSV: 0.43 µg/mL (≈ 1.49 µM)
HIV-1
  EC50 HIV-1: 2.42 µg/mL (≈ 8.4 µM)

## Nc1ncnc2c1ncn2C[C@H](CF)OCP(=O)(O)O [(R)-FPMPA, reference compound]
[2]; single i.p. dose 20 mg/kg
  Mean day of animal death: 10.4 ± 0.52 days
[2]; single i.p. dose 50 mg/kg
  Mean day of animal death: 11.2 ± 0.92 days
C3H/3T3 cells
  MIC: >100 µg/mL

## Nc1nc(N)c2ncn(C[C@H](CF)OCP(=O)(O)O)c2n1 [(R)-FPMPDAP, reference compound]
[2]; single i.p. dose 10 mg/kg
  Mean day of animal death: 12.0 ± 1.0 days
[2]; single i.p. dose 25 mg/kg
  Mean day of animal death: 14.1 ± 1.5 days
[2]; single i.p. dose 50 mg/kg
  Mean day of animal death: 13.9 ± 1.4 days
C3H/3T3 cells
  MIC: >100 µg/mL

## C[C@H](Cn1cnc2c(N)ncnc21)OCP(=O)(O)O [(R)-PMPA, 9-(R)-(2-Phosphonomethoxypropyl)adenine]
MT-4 cells
  toxicity to the cells: non-toxic
[2]; i.p.
  inhibiting tumor initiation and prolonging the life-span of MSV-infected mice (in words): highly effective
[2]; single i.p. dose 2 mg/kg
  Mean day of animal death: 12.6 ± 1.26 days
[2]; single i.p. dose 5 mg/kg
  Mean day of animal death: 14.4 ± 0.47 days
[2]; single i.p. dose 10 mg/kg
  Mean day of animal death: 18.3 ± 1.10 days
[2]; single i.p. dose 20 mg/kg
  percentage of MSV-infected mice still alive at day 20 post infection: 100%
  Mean day of animal death: > 20 days
[2]; single i.p. dose 50 mg/kg
  percentage of MSV-infected mice still alive at day 20 post infection: 100%
  Mean day of animal death: > 20 days
[2]; single i.p. dose of 50 mg/kg
  protection against MSV-induced tumor development (in words): full protection
[2]; single i.p. dose of 10-50 mg/kg
  increasing the mean day of tumor initiation and animal death (in words): markedly effective
C3H/3T3 cells
  MIC: >100 µg/mL
retrovirus; in vitro, summary of Table 1
  concentration markedly inhibitory to retrovirus replication: 1 to 2 µg/mL

## C[C@H](Cn1cnc2c(N)nc(N)nc21)OCP(=O)(O)O [(R)-PMPDAP, 9-(R)-(2-Phosphonomethoxypropyl)-2,6-diaminopurine]
HIV-2; MT-4 cells
  selectivity index (ratio cytotoxic dose/antivirally active dose) for HIV-2: > 2 000
MT-4 cells; at 100 μg/ml
  toxicity to the cells: non-toxic
[3]; 100 mg/kg/day
  increase of the mean day of tumor initiation: 50%
[3]; [4]
  Mean day of tumor initiation: 7.5 ± 1.0*^) day
  Number of mice developing tumor (%): 67%
[2]; i.p.
  in vivo anti-MSV activity relative to (R)-PMPA: five-fold superior over (R)-PMPA
  inhibiting tumor initiation and prolonging the life-span of MSV-infected mice (in words): highly effective
[2]; single i.p. dose 2 mg/kg
  percentage of MSV-infected mice still alive at day 20 post infection: 70%
  percentage of MSV-infected mice without tumor at day 20 post infection: 36%
  Mean day of animal death: 15 days
[2]; single i.p. dose 5 mg/kg
  percentage of MSV-infected mice still alive at day 20 post infection: 90%
  Mean day of animal death: 16.5 days
[2]; single i.p. dose 10 mg/kg
  percentage of MSV-infected mice still alive at day 20 post infection: 90%
  Mean day of animal death: 18.5 days
[2]; single i.p. dose 20 mg/kg
  percentage of MSV-infected mice still alive at day 20 post infection: 95%
  Mean day of animal death: 18 days
[2]; single i.p. dose of 10-20 mg/kg
  protection of the animals against MSV-induced tumor development: 90-95%
C3H/3T3 cells
  MIC: >100 µg/mL
HIV-1; MT-4 cells
  selectivity index (ratio cytotoxic dose/antivirally active dose) for HIV-1: > 2 000

## C[C@H](Cn1cnc2c(=O)[nH]c(N)nc21)OCP(=O)(O)O [(R)-PMPG, 9-(R)-(2-phosphonomethoxypropyl)guanine]
C3H/3T3 cells
  MIC: 40 µg/mL (≈ 132 µM)

## Nc1ncnc2c1ncn2C[C@@H](CF)OCP(=O)(O)O [(S)-FPMPA, reference compound]
[2]; single i.p. dose 10 mg/kg
  Mean day of animal death: 13.6 ± 2.8 days
[2]; single i.p. dose 20 mg/kg
  Mean day of animal death: 17.2 ± 2.2 days
[2]; single i.p. dose 50 mg/kg
  percentage of MSV-infected mice still alive at day 20 post infection: 100%
  Mean day of animal death: > 20 days
C3H/3T3 cells
  MIC: >100 µg/mL

## Nc1nc(N)c2ncn(C[C@@H](CF)OCP(=O)(O)O)c2n1 [(S)-FPMPDAP, reference compound]
[2]; single i.p. dose 10 mg/kg
  Mean day of animal death: 16.7 ± 3.2 days
[2]; single i.p. dose 25 mg/kg
  Mean day of animal death: 14.6 ± 2.2 days
[2]; single i.p. dose 50 mg/kg
  Mean day of animal death: 16.5 ± 0.71 days
C3H/3T3 cells
  MIC: >100 µg/mL

## C[C@@H](Cn1cnc2c(N)ncnc21)OCP(=O)(O)O [(S)-PMPA, 9-(S)-(2-Phosphonomethoxypropyl)adenine]
[2]; i.p. dose of 50 mg/kg
  antiretroviral activity in vivo (in words): no marked antiretroviral activity
[2]; single i.p. dose 10 mg/kg
  Mean day of animal death: 10.9 ± 0.88 days
[2]; single i.p. dose 20 mg/kg
  Mean day of animal death: 10.9 ± 0.88 days
[2]; single i.p. dose 50 mg/kg
  Mean day of animal death: 12.4 ± 0.84 days
C3H/3T3 cells
  MIC: >100 µg/mL
retrovirus
  antiretroviral activity in vitro (in words): devoid of marked antiretroviral activity

## C[C@@H](Cn1cnc2c(N)nc(N)nc21)OCP(=O)(O)O [(S)-PMPDAP, 9-(S)-(2-phosphonomethoxypropyl)-2,6-diaminopurine]
C3H/3T3 cells
  MIC: >100 µg/mL

## C[C@@H](Cn1cnc2c(=O)[nH]c(N)nc21)OCP(=O)(O)O [(S)-PMPG, 9-(S)-(2-Phosphonomethoxypropyl)guanine]
C3H/3T3 cells
  MIC: 8 µg/mL (≈ 26.4 µM)

## Nc1ncnc2c1ncn2CCOCP(=O)(O)O [PMEA, reference compound]
C3H/3T3 cells
  MIC: >100 µg/mL

## CC(Cn1cnc2c(=O)[nH]c(N)nc21)OCP(=O)(O)O (stereo not shown) [PMPG]
Herpes viruses
  antiherpetic effect (in words): due to its substantial cytotoxicity
